The values that follow come from PubChem BioAssay (NCI).

Where “and” joins values, the source holds several entries; their conditions need not be identical. Equal entries are not always repeated.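 These data come from cells grown in 96-well plates and exposed to compound for 48 hours at five concentrations. GI50: concentration for 50% inhibition of growth. At the TGI there is no net growth.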

Experiment in all cases: NCI tumour cell line growth inhibition, 48 h
In experiment [1] the test system is BT-549 breast.
Experiment [2] deals with PC-3 prostate.
Experiment [3] deals with MDA-N.
The test system of experiment [4] is DMS 273 small cell lung.
The subject of experiment [5] is KM20L2 colon.
Experiment [6] relates to M19-MEL melanoma.
Experiment [7] has as its system SNB-78 CNS.
Experiment [8] deals with XF 498 CNS.

Turning to `C#Cc1cccc(Nc2ncnc3cc(OC)c(OCCCCCCC(=O)NO)cc23)c1`, in experiment [1], the GI50 is 0.783 µM and the TGI turned out to be 5.69 µM. For the same molecule, in experiment [2], the GI50 was 0.273 µM and the TGI was 5.38 µM.
On the same counts, the results for `CC(SC(C)C(=O)N/N=C/c1cccc(Cl)c1)C(=O)N/N=C\c1cccc(Cl)c1` (stereo unspecified) are 18.2 µM, 41.6 µM, 4.36 µM and 25.8 µM.
On the same counts, the results for `Cc1ccc(C(SCC(N)C(=O)O)(c2ccccc2)c2ccc(C)cc2)cc1` (stereo unspecified) are 0.247 µM, 21.9 µM, 0.314 µM and 30.4 µM.
The matching figures for `Clc1coc2nc3ccccc3c(Nc3ccc4c(c3)OCO4)c12`: 5.19 µM, 27 µM, 1.93 µM and 13.5 µM.
In the case of `C/C(=C\CCc1ccoc1)CC/C=C(\C)CCCC1=CC(=O)OC1`, in experiment [1], the GI50 is 6.24 µM and the TGI came to 25.9 µM. In experiment [2], the GI50 is 3.2 µM and the TGI was found to be 24.9 µM.
On the same counts, the results for `CNCCNc1c2c(c(NCCNC)c3c(CN(C)C)c[nH]c13)C(=O)c1ccccc1C2=O` are 6.04 µM, 14.4 µM, 0.969 µM and 5.64 µM.
On to `Cc1nnc(S(=O)(=O)c2ccc(N=Nc3c(N)nc(N)nc3N)cc2)s1`, for which the TGI in experiment [1], in experiment [3] and in experiment [2] was over 100 µM each time.
Turning to `Cc1c2cccnc2c(C)c2c1c1cc(CO)ccc1n2C`, the results for the GI50 in experiment [1] and in experiment [2] were 3.42 µM and 2.67 µM, respectively. For the same molecule, the figures for the TGI in experiment [1] and in experiment [2] were 20.1 µM and 33 µM, respectively.
On the same counts, the results for `COc1ccc2c(c1)C(C)Cc1c(Cl)ncnc1N2C` (stereo unspecified) are 0.433 µM, 0.424 µM, 18.4 µM and over 59.1 µM.
With `NC(=NCCCOc1ccc(Cl)cc1)Nc1ccc(C(F)(F)F)cc1`, in experiment [1], the GI50 was 2.32 µM and the TGI was 6.31 µM. In addition, in experiment [2], the GI50 is 1.67 µM and the TGI stood at 5.25 µM.
On to `CCCCCCCCCC/C=C/CC(=O)SCCNC(=O)CCNC(=O)[C@@H](O)C(C)(C)COP(=O)(O)OP(=O)(O)OCC1OC(n2cnc3c(N)ncnc32)C(O)C1OP(=O)(O)O` (stereo partly specified), for which the TGI in experiment [3] and in experiment [2] was over 10 µM throughout.
For the molecule `Cc1ccc(SC(C)/C=C/NNC2=NC(c3ccccc3)C(c3ccccc3)=NN2)cc1` (stereo unspecified), the TGI in experiment [4] is over 100 µM; in experiment [5], 27.6 µM; in experiment [6], over 100 µM; in experiment [7], over 100 µM.
Turning to `Cn1cc(C2=C(c3ccc4ccccc4c3)C(=O)NC2=O)c2ccccc21`, in experiment [1], the GI50 is over 25 µM and the TGI was over 25 µM. Moreover, in experiment [2], the GI50 is over 25 µM and the TGI was over 25 µM.
Take `COc1ncnc(C2CC2)c1-c1ncc2cnn(Cc3ccc(-c4nc(C(F)(F)F)cn4C(C)C)cc3)c2n1`: in experiment [1], the GI50 is 21 µM and the TGI turned out to be 80.5 µM. In addition, in experiment [2], the GI50 was 17.5 µM and the TGI was over 100 µM.
On the same counts, the results for `Ic1ccc(Nc2nc3nonc3nc2Nc2ccc(I)cc2)cc1` are 0.301 µM, 1.36 µM, 0.186 µM and over 100 µM.
The matching figures for `CCN1CCN(c2ccc(Nc3cc(N(C)C(=O)Nc4c(Cl)c(OC)cc(OC)c4Cl)ncn3)cc2)CC1`: 1.04 µM, 21.1 µM, 3.52 µM and 19.2 µM.
`CCCCOC(=O)C1C(c2ccc(Cl)cc2)NC(c2ccc(Cl)cc2)C(C(=O)OCCCC)S1(=O)=O` (stereo unspecified): the TGI in experiment [4], in experiment [5], in experiment [6] and in experiment [8] was over 100 µM throughout.
In the case of `COc1ccc(C2S/C(=C\c3ccccc3O)C(=O)N2NC(=O)Cc2ccccc2)cc1` (stereo unspecified), the TGI in experiment [4] and in experiment [6] was over 100 µM throughout.
In the case of `Clc1ccc2c(NCCCNc3nccc(Nc4ccc(Br)cc4)n3)ccnc2c1`, in experiment [1], the GI50 was 1.68 µM and the TGI came to 3.4 µM. Moreover, in experiment [2], the GI50 is 1.74 µM and the TGI amounted to 3.56 µM.
On the same counts, the results for `C=C(C=O)C1CCC2(C(=O)O)CCC3(C)C(CCC4C5(C)CCC(O)C(C)(C)C5CCC43C)C12` (stereo unspecified) are 1.68 µM, 6.67 µM, 2.76 µM and 23.2 µM.
On the same counts, the results for `C=CC1CC12C(=O)C1OC2(C)C2C(=O)c3cc4ccccc4cc3C(=O)C12` (stereo unspecified) are 25 µM, 62.6 µM, 20.3 µM and over 100 µM.
On the same counts, the results for `CCC[CH2][Sn]([CH2]CCC)([CH2]CCC)[O]C(=O)CC` are 0.15 µM, 0.344 µM, 0.189 µM and 0.426 µM.
Consider `Oc1ccc(Cl)cc1Cc1cc(Cl)cc(Cl)c1O`, for which the GI50 in experiment [1] is 3.32 µM; in experiment [2], 3.59 µM. Besides, the results for the TGI in experiment [1] and in experiment [2] were 11.9 µM and 15.5 µM, respectively.
With `OCCN1CN(CCO)CN(c2nc(N3CN(CCO)CN(CCO)C3)nc(N3CN(CCO)CN(CCO)C3)n2)C1`, the TGI in experiment [1] came out at 1.55 ng/mL; in experiment [2] it was 3.51 ng/mL.
On to `COCCOc1cc(F)c2c(Nc3ccc(NC(=O)Cn4cc(C(C)C)nn4)cc3)ncnc2c1`, for which the values for the GI50 in experiment [1] and in experiment [2] were 33.6 µM and over 100 µM, respectively. Moreover, the TGI in experiment [1] and in experiment [2] was over 100 µM in each case.
For `CC(C)c1ccc(Nc2ccc3c(OCCCN4CCN(C)CC4)cccc3n2)cc1`, the figures for the GI50 in experiment [1] and in experiment [2] were 12.3 µM and 12.9 µM, respectively. The TGI turned out to be 28.7 µM in experiment [1] and 31.4 µM in experiment [2].
Turning to `CC[C@]12C=CCN3CC[C@@]4(c5ccc(OC)cc5N(C)[C@H]4[C@@](O)(C(=O)OC)[C@@H]1OC(=O)CCC[P+](c1ccccc1)(c1ccccc1)c1ccccc1)[C@@H]32`, in experiment [1], the GI50 was 0.284 µM and 0.234 µM; the TGI is 1.86 µM and 1.6 µM. Also, in experiment [2], the GI50 was 0.224 µM and 0.345 µM; the TGI was 5.13 µM and 2.59 µM.
In the case of `CCCCN(CCCC)CC(C(=O)Nc1ccc([N+](=O)[O-])cc1[N+](=O)[O-])/C(C)=N\NC(=S)NN` (stereo unspecified), the TGI in experiment [4], in experiment [5], in experiment [6] and in experiment [8] was over 100 µM in each case.
On to `O=C(O/N=C1/CCCC/C1=C\c1ccccc1)c1ccccc1`, for which the TGI in experiment [4], in experiment [5], in experiment [6] and in experiment [8] was over 100 µM throughout.
Take `CC1=CC(/C=C(\C)CCCc2ccoc2)C2(OC(=O)C(C)=C2O)[C@H]2C1CC[C@@H]2C` (stereo partly specified): the TGI worked out at 90.6 µM in experiment [6] and 85.2 µM in experiment [7].
On to `O=S(=O)(Nc1cc(F)cc(Cl)c1)c1ccc(-c2cnc(C3CC3)o2)cc1`, for which, in experiment [1], the GI50 is 0.933 µM and the TGI was found to be 18.8 µM. In experiment [2], the GI50 is 1.25 µM and the TGI stood at 14.3 µM.
Regarding `O=Cc1cc2c(cc1-c1c(C=O)ccc3c1OCO3)OCO2`, the TGI in experiment [1], in experiment [3] and in experiment [2] was over 10 µM throughout.
For the molecule `CC/C(=C(/c1ccc(OCCN(C)C)cc1)c1ccc(OC(=O)CCCCC(=O)c2c(C)[nH]c(/C=C3\N=C(c4ccc[nH]4)C=C3OC)c2C)cc1)c1ccccc1`, in experiment [1], the GI50 is 3.57 µM and the TGI worked out at 17 µM. Besides, in experiment [2], the GI50 was 4.6 µM and the TGI is 20.6 µM.
For `O=C(CCCn1ccnc1[N+](=O)[O-])NCCn1cncc1[N+](=O)[O-]`, the TGI in experiment [1], in experiment [3] and in experiment [2] was over 100 µM throughout.
Turning to `CC1OC2CC(=O)OC2C2=C1C(=O)c1c(O)cccc1C2=O` (stereo unspecified), in experiment [1], the GI50 is 0.177 µM and the TGI is 0.368 µM. For the same molecule, in experiment [2], the GI50 is 0.242 µM and the TGI was 0.965 µM.
On the same counts, the results for `CC(=O)OC1Oc2ccccc2-c2oc(=O)c(-c3cc(=O)oc4cc(O)ccc34)cc21` (stereo unspecified) are 15.3 µM, 41.4 µM, 16.2 µM and 55.6 µM.
The matching figures for `COc1ccc(N(C)c2ncnc3occ(C)c23)cc1`: under 0.0244 µM, over 62.4 µM, under 0.01 µM and over 51.8 µM.
On the same counts, the results for `C/C1=C\CC[C@@]2(C)O[C@@H]2[C@H]2OC(=O)[C@@H](CN(C)C)[C@@H]2CC1` are 4.8 µM, 26.9 µM, 14.1 µM and 33.7 µM.
On to `COc1cc(Nc2cn[nH]c2-c2ccc(Cl)cc2)cc(OC)c1OC`, for which, in experiment [1], the GI50 was 3.37 µM and the TGI turned out to be 19.2 µM. For the same molecule, in experiment [2], the GI50 was 8.18 µM and the TGI was over 64 µM.
The matching figures for `C=C(F)C(=O)N1CCN(c2nc(OC[C@@H]3CCCN3C)nc3c2CCN(c2cccc4cccc(Cl)c24)C3)C[C@@H]1CC#N`: 2.19 µM, 4.57 µM, 0.855 µM and 2.44 µM.
As to `COC(=O)c1cc2c(cc1O)[C@@H](NC(C)=O)CCc1cc(OC)c(OC)c(OC)c1-2`, in experiment [2], the GI50 is 0.015 µM and the TGI is over 100 µM.
In the case of `CC(=O)Nc1ccc(C(=O)NN2C(=O)C(Cl)C2c2ccccc2)cc1` (stereo unspecified), the TGI in experiment [4], in experiment [5], in experiment [6] and in experiment [7] was over 100 µM throughout.
Consider `COc1ccc(NC(=O)CCc2cc(-c3ccc(O)c(OC)c3)nc(NC#N)n2)cc1`, for which the TGI in experiment [5], in experiment [6] and in experiment [7] was over 100 µM throughout.
In the case of `CC(=O)O.CC(=O)O.CC(=O)O.CC(=O)O.CC(=O)O.CC(=O)O.O.[Ti].[Ti]`, the GI50 in experiment [4], in experiment [5] and in experiment [7] was over 100 µM throughout. Further, the TGI in experiment [4], in experiment [5] and in experiment [7] was over 100 µM each time.
For the molecule `O=C1NC(=Nc2ccccc2)S/C1=C\c1ccc2ncccc2c1`, in experiment [1], the GI50 was over 25 µM and the TGI is over 25 µM. In experiment [2], the GI50 is 1.67 µM and the TGI was over 25 µM.
Consider `Cn1c(=O)c2c(nc(Nc3cc(=O)[nH]c(=O)[nH]3)n2Cc2ccccc2)n(C)c1=O`, for which, in experiment [1], the GI50 was 69.4 µM and the TGI is over 100 µM. In addition, in experiment [2], the GI50 is over 100 µM and the TGI was over 100 µM.
For the molecule `COC(=O)/C=C/c1cc(O)c2oc(-c3ccc(O)c(O)c3)c(C(=O)OC)c2c1`, the GI50 was 1.5 µM in experiment [1] and 0.437 µM in experiment [2]. The results for the TGI in experiment [1] and in experiment [2] were 11.9 µM and 13.1 µM, respectively.
On the same counts, the results for `CNCCCn1cc(C2=C(c3cn(C)c4ccccc34)C(=O)NC2=O)c2ccccc21` are 4.81 µM, 4.01 µM, 8.83 µM and 14.6 µM.
With `CCCCc1c(OC)cc(O)c2c1C(=O)c1[nH]c(C(=O)O)c(O)c(=O)c1C2=O`, the TGI in experiment [1] was 52.8 µM; in experiment [3] it was over 100 µM; in experiment [2], over 100 µM.
Regarding `CC(C)(C)C(=O)OCOP(=O)(OCOC(=O)C(C)(C)C)C1CCCN(O)C1=O` (stereo unspecified), in experiment [1], the GI50 is 0.313 µM and the TGI worked out at 1.26 µM. Further, in experiment [2], the GI50 is 2.02 µM and the TGI is over 100 µM.
The matching figures for `CCOc1nc(-c2ccccc2)cc2c(O)c(-c3nnco3)[nH]c(=O)c12`: 3.23 µM, over 100 µM, 4.3 µM and over 100 µM.
